Experimental data: patent US11447505B1, “Pyrrolo[2,3-b]pyridine compounds and their use in the treatment of cancer” (priority 2017, dated 2022)

Key:
ROCK2 = ROCK2 (Homo sapiens (Human), UniProt O75116); experiment: ROCK2 kinase assay (IMAP fluorescence polarization); assay type: biochemical; conditions: 1 μM ATP; read-out: ROCK2 Average Ki
MRCKβ [1] = molecular target: T1, MRCKβ (Homo sapiens (Human), UniProt Q9Y5S2); experiment: MRCKβ kinase assay (IMAP fluorescence polarization); assay type: biochemical; conditions: 1 μM ATP; read-out: MRCK-B Average Ki
From the text: (§1) MRCKα, MRCKβ, ROCK1 and ROCK2 Kinase Assays

ROCK1 = ROCK1 (Homo sapiens (Human), UniProt Q13464); experiment: biochemical
Experimental: MRCKα, MRCKβ, ROCK1 and ROCK2 assays were performed using an IMAP fluorescence polarization assay format (Molecular Devices Inc.). […] Typically, dose response analyses were performed over concentration ranges from 0.005-100 μM. […] After 30 min incubation to allow binding reagent to bind phosphorylated peptide, fluorescence polarization was measured on a Tecan Saphire^2 plate reader at excitation (470 nm) and emission (530 nm) wavelengths.

MRCKβ [2] = molecular target: T1, MRCKβ; experiment: MRCKβ cellular assay (pMLC T18/S19 immunoblot, MDA-MB-231 cells with doxycycline inducible kinase domain); assay type: cell-based; conditions: MDA-MB-231 cells, doxycycline inducible kinase domain, 60 minutes, pMLC (T18/S19); read-out: Cellular assay - MRCK-b inhibition MEAN
Experimental: MRCKβ, ROCK1 and ROCK2 Cellular Assays
MDA-MB-231 cells expressing doxycycline inducible ROCK1, ROCK2 or MRCKβ kinase domains were plated at 1.1×10^5 cells per well of a 12 well plate. After 24 hours, cells were treated with 1 μg/ml doxycycline for 18 hours to induce kinase domain expression and then tested over a suitable concentration range with compounds of the invention for 60 minutes. Cells were then washed with PBS and lysed with Tris-SDS lysis Buffer (50 mM Tris-HCl pH7.4, 0.5% (v/v) SDS, 1×PhosStop Inhibitors (04 906 837 001; Roche) and 1×Complete Protease Inhibitors (04 693 124 001; Roche)). Whole cell lysates were clarified by passing through QIAshredder spin columns, separated by SDS-PAGE, and quantitative immunoblotting performed using a LI-COR Odyssey IR scanner to determine pMLC (T18/S19) and α-Tubulin levels.

MRCKα = MRCKα (Homo sapiens (Human), UniProt Q5VT25); experiment: MRCKα kinase assay (IMAP fluorescence polarization); assay type: biochemical; conditions: 1 μM ATP; read-out: MRCK-a Average Ki
From the text: as §1

Sequence of ROCK1 (Q13464 2-1354 limits assumed): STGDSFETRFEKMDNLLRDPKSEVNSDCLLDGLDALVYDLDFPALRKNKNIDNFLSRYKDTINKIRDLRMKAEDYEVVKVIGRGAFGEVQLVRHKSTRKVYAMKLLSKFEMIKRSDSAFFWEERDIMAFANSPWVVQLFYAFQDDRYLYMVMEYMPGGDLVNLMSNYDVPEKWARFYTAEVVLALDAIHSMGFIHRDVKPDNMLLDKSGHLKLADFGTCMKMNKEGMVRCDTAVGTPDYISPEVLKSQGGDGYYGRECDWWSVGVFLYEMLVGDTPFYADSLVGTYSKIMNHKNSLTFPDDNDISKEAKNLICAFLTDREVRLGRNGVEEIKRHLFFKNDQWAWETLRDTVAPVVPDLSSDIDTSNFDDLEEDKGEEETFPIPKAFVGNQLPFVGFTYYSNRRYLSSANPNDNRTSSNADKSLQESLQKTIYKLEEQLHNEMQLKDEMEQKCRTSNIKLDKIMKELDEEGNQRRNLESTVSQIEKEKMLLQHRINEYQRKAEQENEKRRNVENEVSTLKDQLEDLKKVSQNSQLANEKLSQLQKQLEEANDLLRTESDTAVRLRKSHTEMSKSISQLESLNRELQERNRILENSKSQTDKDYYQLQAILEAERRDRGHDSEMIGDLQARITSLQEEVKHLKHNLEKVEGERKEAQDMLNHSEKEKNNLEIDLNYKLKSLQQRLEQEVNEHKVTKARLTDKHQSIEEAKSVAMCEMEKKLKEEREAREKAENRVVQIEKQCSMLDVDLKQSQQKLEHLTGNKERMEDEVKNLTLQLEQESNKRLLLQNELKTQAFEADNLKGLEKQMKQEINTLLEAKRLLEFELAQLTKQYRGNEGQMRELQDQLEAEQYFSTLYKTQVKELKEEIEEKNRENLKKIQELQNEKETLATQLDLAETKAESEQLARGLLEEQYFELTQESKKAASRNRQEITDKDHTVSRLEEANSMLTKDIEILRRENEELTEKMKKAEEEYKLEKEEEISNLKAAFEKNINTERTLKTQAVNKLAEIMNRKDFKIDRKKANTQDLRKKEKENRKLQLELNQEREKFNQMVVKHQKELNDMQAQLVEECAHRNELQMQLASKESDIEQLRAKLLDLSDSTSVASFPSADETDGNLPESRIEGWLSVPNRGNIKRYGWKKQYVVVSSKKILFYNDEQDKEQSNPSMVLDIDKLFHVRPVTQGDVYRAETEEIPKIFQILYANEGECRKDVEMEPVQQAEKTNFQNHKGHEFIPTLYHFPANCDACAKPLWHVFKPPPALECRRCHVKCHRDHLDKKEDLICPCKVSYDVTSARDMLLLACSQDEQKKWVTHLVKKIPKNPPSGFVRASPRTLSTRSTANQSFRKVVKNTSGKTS
Sequence of ROCK2 (O75116 whole entry): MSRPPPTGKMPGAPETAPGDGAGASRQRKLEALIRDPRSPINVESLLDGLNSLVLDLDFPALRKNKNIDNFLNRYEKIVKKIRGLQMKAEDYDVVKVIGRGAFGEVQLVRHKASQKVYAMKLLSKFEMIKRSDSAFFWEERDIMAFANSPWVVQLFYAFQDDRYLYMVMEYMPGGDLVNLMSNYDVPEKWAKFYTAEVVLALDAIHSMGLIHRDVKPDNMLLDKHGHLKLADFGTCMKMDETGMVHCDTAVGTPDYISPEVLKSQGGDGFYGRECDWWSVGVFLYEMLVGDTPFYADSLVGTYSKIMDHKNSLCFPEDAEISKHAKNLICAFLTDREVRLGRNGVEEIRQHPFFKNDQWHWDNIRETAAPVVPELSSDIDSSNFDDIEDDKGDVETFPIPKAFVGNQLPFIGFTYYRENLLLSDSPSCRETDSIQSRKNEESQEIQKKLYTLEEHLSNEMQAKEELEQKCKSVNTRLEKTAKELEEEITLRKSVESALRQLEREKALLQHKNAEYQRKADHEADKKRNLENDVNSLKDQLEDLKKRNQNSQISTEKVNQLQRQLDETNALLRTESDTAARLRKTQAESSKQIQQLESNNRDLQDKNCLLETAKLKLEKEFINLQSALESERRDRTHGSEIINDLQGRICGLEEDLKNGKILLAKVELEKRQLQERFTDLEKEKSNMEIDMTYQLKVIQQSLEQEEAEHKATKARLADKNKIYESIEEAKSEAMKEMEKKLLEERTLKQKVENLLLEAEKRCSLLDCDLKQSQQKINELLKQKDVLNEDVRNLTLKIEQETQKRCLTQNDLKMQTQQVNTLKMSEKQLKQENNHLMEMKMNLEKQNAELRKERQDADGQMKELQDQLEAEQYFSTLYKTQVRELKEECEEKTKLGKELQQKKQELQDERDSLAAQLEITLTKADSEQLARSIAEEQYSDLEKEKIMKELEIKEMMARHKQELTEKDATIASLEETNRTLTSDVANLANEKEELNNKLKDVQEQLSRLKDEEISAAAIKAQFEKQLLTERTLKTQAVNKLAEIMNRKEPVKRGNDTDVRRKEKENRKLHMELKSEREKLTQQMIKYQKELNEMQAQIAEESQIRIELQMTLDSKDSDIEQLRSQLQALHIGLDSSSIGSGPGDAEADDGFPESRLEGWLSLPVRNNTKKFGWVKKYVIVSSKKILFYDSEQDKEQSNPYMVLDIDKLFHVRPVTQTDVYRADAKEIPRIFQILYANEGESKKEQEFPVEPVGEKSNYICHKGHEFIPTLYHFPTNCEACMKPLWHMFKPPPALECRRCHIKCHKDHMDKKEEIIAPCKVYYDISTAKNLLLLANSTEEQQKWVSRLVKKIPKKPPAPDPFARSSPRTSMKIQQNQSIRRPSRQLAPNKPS
Sequence of MRCKα (Q5VT25 whole entry): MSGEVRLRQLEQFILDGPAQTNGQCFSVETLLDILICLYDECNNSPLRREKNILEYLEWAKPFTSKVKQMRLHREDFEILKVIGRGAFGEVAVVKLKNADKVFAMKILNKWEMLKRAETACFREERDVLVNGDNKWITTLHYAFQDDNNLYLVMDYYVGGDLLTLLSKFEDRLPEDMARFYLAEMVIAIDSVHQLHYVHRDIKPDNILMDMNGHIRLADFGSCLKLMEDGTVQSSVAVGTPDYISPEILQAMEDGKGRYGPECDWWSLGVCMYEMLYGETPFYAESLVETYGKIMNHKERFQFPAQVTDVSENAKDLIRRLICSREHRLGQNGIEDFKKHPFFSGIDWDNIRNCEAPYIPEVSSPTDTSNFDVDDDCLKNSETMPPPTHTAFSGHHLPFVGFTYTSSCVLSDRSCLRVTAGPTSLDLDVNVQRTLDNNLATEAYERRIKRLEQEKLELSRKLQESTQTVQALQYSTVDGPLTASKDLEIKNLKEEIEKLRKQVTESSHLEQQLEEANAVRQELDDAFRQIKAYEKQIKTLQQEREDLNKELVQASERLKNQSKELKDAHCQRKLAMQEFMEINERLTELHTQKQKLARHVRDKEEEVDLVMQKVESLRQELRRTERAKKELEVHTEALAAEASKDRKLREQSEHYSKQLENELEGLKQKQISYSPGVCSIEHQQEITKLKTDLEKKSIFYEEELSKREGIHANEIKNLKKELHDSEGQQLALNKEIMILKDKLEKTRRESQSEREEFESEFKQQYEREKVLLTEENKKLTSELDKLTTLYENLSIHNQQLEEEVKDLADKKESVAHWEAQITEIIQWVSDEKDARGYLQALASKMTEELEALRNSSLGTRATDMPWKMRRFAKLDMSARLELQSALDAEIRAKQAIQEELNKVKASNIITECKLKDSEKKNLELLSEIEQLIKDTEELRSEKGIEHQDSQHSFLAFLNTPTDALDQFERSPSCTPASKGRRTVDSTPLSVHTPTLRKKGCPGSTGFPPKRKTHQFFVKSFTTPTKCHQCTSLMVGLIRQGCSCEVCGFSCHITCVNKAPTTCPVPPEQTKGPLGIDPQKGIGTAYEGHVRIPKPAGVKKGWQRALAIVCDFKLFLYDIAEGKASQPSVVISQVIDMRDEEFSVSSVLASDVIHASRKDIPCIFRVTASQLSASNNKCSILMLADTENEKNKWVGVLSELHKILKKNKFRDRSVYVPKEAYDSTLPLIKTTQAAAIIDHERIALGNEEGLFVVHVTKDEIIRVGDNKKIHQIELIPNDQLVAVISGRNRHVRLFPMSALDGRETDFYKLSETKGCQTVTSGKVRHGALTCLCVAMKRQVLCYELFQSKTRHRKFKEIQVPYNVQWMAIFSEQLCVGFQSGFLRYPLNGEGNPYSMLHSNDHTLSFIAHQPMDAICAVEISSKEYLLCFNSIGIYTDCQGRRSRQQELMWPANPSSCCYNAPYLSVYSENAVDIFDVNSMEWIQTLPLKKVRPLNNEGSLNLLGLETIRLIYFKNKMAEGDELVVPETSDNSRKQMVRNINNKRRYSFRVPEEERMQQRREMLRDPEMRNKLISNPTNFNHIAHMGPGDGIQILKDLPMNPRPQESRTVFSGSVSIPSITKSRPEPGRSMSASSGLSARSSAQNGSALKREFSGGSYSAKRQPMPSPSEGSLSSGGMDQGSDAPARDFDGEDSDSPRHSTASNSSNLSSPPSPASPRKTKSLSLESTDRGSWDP

Structure (SMILES) | Ki (ROCK2) [nM] | Ki (MRCKβ [1]) [nM] | Ki (ROCK1) [nM] | IC50 (MRCKβ [2]) [nM] | Ki (MRCKα) [nM]
Nc1cncc(-c2c[nH]c3nccc(N4CCCCC4)c23)c1 [Example E6, 5-[4-(1-piperidyl)-1H-pyrrolo[2,3-b]pyridin-3-yl]pyridin-3-amine] | 1.9 | 1.11 | 3.5 |  | 
N#Cc1c[nH]c2nccc(N3CCC[C@H]3CO)c12 [Example E38, 4-[(2S)-2-(hydroxymethyl)pyrrolidin-1-yl]-1H-pyrrolo[2,3-b]pyridine-3-carbonitrile] | 12.7 | 5.08 | 16.7 |  | 
N#Cc1c[nH]c2nccc(N3CCC[C@@H]3CO)c12 [Example E39, 4-[(2R)-2-(hydroxymethyl)pyrrolidin-1-yl]-1H-pyrrolo[2,3-b]pyridine-3-carbonitrile] | 86.8 | 29.7 | 103 |  | 
N#Cc1c[nH]c2nccc(N3CCC[C@H]3COc3ccccc3)c12 [Example E40, 4-[(2S)-2-(phenoxymethyl)pyrrolidin-1-yl]-1H-pyrrolo[2,3-b]pyridine-3-carbonitrile] | 1070 | 247 | 2150 |  | 
c1cc(-c2c[nH]c3nccc(N4CCC[C@H](NC5CC5)C4)c23)ncn1 [Example E41, (3S)—N-cyclopropyl-1-(3-pyrimidin-4-yl-1H-pyrrolo[2,3-b]pyridin-4-yl)piperidin-3-amine] |  | 0.202 | 34.4 |  | 
c1cc(-c2c[nH]c3nccc(N4CCC[C@H](NC5CC5)C4)c23)cnn1 [Example E46, (3S)-N-cyclopropyl-1-(3-pyridazin-4-yl-1H-pyrrolo[2,3-b]pyridin-4-yl)piperidin-3-amine] | 233 | 0.238 | 11.9 | 1540 | 0.322
CN[C@H]1CCCN(c2ccnc3[nH]cc(-c4nccs4)c23)C1 [Example E47, (3S)-N-methyl-1-(3-thiazol-2-yl-1H-pyrrolo[2,3-b]pyridin-4-yl)piperidin-3-amine] | 103 | 0.304 | 595 | 1530 | 0.158
CN(C)C1CCCN(c2ccnc3[nH]cc(-c4cncnc4)c23)C1 (centres unmarked) [Example E60, N,N-dimethyl-1-(3-pyrimidin-5-yl-1H-pyrrolo[2,3-b]pyridin-4-yl)piperidin-3-amine] | 201 | 13.6 | 404 |  | 
CN[C@H]1CCCN(c2ccnc3[nH]cc(-c4ccncn4)c23)C1 [Example E66, (3S)-N-methyl-1-(3-pyrimidin-4-yl-1H-pyrrolo[2,3-b]pyridin-4-yl)piperidin-3-amine] | 99.2 | 0.17 | 241 | 1780 | 0.238
Brc1cnc2[nH]cc(-c3cc[nH]n3)c2c1N1CCCCC1 [Example E70, 5-bromo-4-(1-piperidyl)-3-(1H-pyrazol-3-yl)-1H-pyrrolo[2,3-b]pyridine] | 276 | 346 | 1300 |  | 
CN[C@H]1CCCN(c2ccnc3[nH]cc(-c4cc[nH]n4)c23)C1 [Example E83, (3S)-N-methyl-1-[3-(1H-pyrazol-3-yl)-1H-pyrrolo[2,3-b]pyridin-4-yl]piperidin-3-amine] | 196 | 1.85 | 1110 |  | 0.481
c1ncc(-c2c[nH]c3nccc(N[C@H]4CCCNC4)c23)cn1 [Example E87, N-[(3S)-3-piperidyl]-3-pyrimidin-5-yl-1H-pyrrolo[2,3-b]pyridin-4-amine] | 326 | 54.3 | 50300 |  | 33.6
OC1CCN([C@H]2CCCN(c3ccnc4[nH]cc(-c5cncnc5)c34)C2)CC1 [Example E92, 1-[(3S)-1-(3-pyrimidin-5-yl-1H-pyrrolo[2,3-b]pyridin-4-yl)-3-piperidyl]piperidin-4-ol] | 1510 | 4.97 | 5000 |  | 
OC1CCN([C@H]2CCCN(c3ccnc4[nH]cc(-c5cncnc5)c34)C2)C1 (stereo partly drawn) [Example E93, [(3S)-1-(3-pyrimidin-5-yl-1H-pyrrolo[2,3-b]pyridin-4-yl)-3-piperidyl]pyrrolidin-3-ol] | 830 | 4.78 | 2380 |  | 11.6
